Molecules are shown by their SMILES. Where a name gives a salt, the structure may show the parent alone.

This experiment deals with sodium channel isoforms of interest stably expressed in Human Embryonic Kidney Cells (voltage-gated sodium channel, particularly NaV1.1) (Homo sapiens, UniProt P35498). Nature of the experiment: automated planar patch clamp assay of sodium channel gating (area under the sodium current trace). The experiment is classed as cell-based. The following applies: HEK cells, voltage step from −120 mV to 0 mV, increasing concentrations. An excerpt: A typical assay described in Crestey, F. et al., ACS Chem Neurosci (2015), Vol. 6, pp. 1302-1308, AA43279 (Frederiksen, K. et al., Eur J Neurosci (2017), Vol. 46, pp. 1887-1896) and Lu AE98134 (von Schoubyea, N. L. et al., Neurosci Lett (2018), Vol. 662, pp. 29-35) employs the use of automated planar patch clamp techniques to study the effects of the chemical agent on the gating of sodium channels. The sodium channel isoforms of interest are stably expressed in Human Embryonic Kidney Cells and the currents that flow through those channels in response to a depolarizing voltage clamp step from −120 mV to 0 mV are measured in the presence of increasing concentrations of the chemical agents. The area under the sodium current trace which correlates to the magnitude of sodium flux through the cell membrane is used to quantify the effects on gating of the channels. Other parameters that are measured in the assay include the peak current, time constant of open state inactivation and the voltage dependence of steady state inactivation properties. The concentration responses are used to determine potency of each chemical agents effects on modulating the sodium channel isoform gating. Such techniques are known to those skilled in the art, and may be developed, using current technologies, into low or medium throughput assays for evaluating compounds for their ability to modulate sodium channel behaviour.
As disclosed above, typical assays for testing compounds of the disclosure are known, for example as disclosed in Crestey, F. et al., ACS Chem Neurosci (2015), Vol. 6, pp. 1302-1308, AA43279 (Frederiksen, K. et al., Eur J Neurosci (2017), Vol. 46, pp. 1887-1896) and Lu AE98134 (von Schoubyea, N. L. et al., Neurosci Lett (2018), Vol. 662, pp. 29-35) which employs the use of automated planar patch clamp techniques to study the effects of the chemical agent on the gating of sodium channels. The sodium channel isoforms of interest are stably expressed in Human Embryonic Kidney Cells and the currents that flow through those channels in response to a depolarizing voltage clamp step from −120 mV to 0 mV are measured in the presence of increasing concentrations of the chemical agents. The area under the sodium current trace which correlates to the magnitude of sodium flux through the cell membrane is used to quantify the effects on gating of the channels. Other parameters that are measured in the assay include the peak current, time constant of open state inactivation and the voltage dependence of steady state inactivation properties. The concentration responses are used to determine potency of each chemical agents effects on modulating the sodium channel isoform gating.
As for `Fc1ccc(F)c(-c2ccnc(N3CC[C@H](F)C3)c2-c2nc3cnc(Cl)cc3[nH]2)c1` [Example 1, (S)-6-chloro-2-(4-(2,5-difluorophenyl)-2-(3-fluoropyrrolidin-1-yl)pyridin-3-yl)-1H-imidazo[4,5-c]pyridine], the 50% effective concentration (EC50) is under 1 µM and the “Empirical Emax” value is “++++ (++++ indicates a value greater than 7.5)”.
As for `Fc1ccccc1-c1ccnc(N2CCCC2)c1-c1nc2ncccc2[nH]1` [Example 2, 2-(4-(2-fluorophenyl)-2-(pyrrolidin-1-yl)pyridine-3-yl)-1H-imidazo[4,5-b]pyridine], the EC50 is 1 to 10 µM and the “Empirical Emax” value was “++++ (++++ indicates a value greater than 7.5)”.
In the same order, the values of `Fc1ccccc1-c1ccnc(N2CCCC2)c1-c1nc2ccccc2[nH]1` [Example 3, 2-(4-(2-fluorophenyl)-2-(pyrrolidin-1-yl)pyridin-3-yl)-1H-benzo[d]imidazole] are 1 to 10 µM and “++++ (++++ indicates a value greater than 7.5)”.
In the case of `Nc1nnc(-c2c(-c3ccccc3F)ccnc2N2CCCC2)o1` [Example 4, 5-(4-(2-fluorophenyl)-2-(pyrrolidin-1-yl)pyridin-3-yl)-1,3,4-oxadiazol-2-amine], the EC50 was at least 50 µM and the “Empirical Emax” value was “+++ (+++ indicates a value from 5.0 up to 7.5 μM)”.
In the same order, the values of `CC(C)CC1CN=C(c2c(-c3ccccc3F)ccnc2N2CCCC2)N1` (centres unmarked) [Example 5, 4-(2-fluorophenyl)-3-(5-isobutyl-4,5-dihydro-1H-imidazol-2-yl)-2-(pyrrolidin-1-yl)pyridine] are 1 to 10 µM and “+ (+ indicates a value less than 2.0 μM)”.
As for `Clc1ccccc1-c1ccnc(N2CCCC2)c1-c1nc2ccccc2[nH]1` [Example 6, 2-(4-(2-chlorophenyl)-2-(pyrrolidin-1-yl)pyridin-3-yl)-1H-benzo[d]imidazole], the EC50 lay within 1 to 10 µM and the “Empirical Emax” value is reported as “++ (++ indicates a value from 2.0 up to 5.0 μM)”.
In the same order, the values of `Cc1ccccc1-c1ccnc(N2CCCC2)c1-c1nc2ccccc2[nH]1` [Example 7, 2-(2-(pyrrolidin-1-yl)-4-(o-tolyl)pyridin-3-yl)-1H-benzo[d]imidazole] are 1 to 10 µM and “++ (++ indicates a value from 2.0 up to 5.0 μM)”.
Regarding `Cc1ccccc1-c1ccnc(N2CCOCC2)c1-c1nc2ccccc2[nH]1` [Example 8, 4-(3-(1H-benzo[d]imidazol-2-yl)-4-(o-tolyl)pyridin-2-yl)morpholine], the EC50 was in the range of 10 to 50 µM and the “Empirical Emax” value is “+++ (+++ indicates a value from 5.0 up to 7.5 μM)”.
For `Fc1ccccc1-c1ccnc(N2CC[C@H](F)C2)c1-c1nnco1` [Example 9, (S)-2-(4-(2-fluorophenyl)-2-(3-fluoropyrrolidin-1-yl)pyridin-3-yl)-1,3,4-oxadiazole] the same measures were at least 50 µM and “++ (++ indicates a value from 2.0 up to 5.0 μM)”.
For `c1ccc(-c2ccnc(N3CCCC3)c2-c2nc3ccccc3[nH]2)nc1` [Example 10, 2-(2′-(pyrrolidin-1-yl)-[2,4′-bipyridin]-3′-yl)-1H-benzo[d]imidazole] the same measures were 10 to 50 µM and “++ (++ indicates a value from 2.0 up to 5.0 μM)”.
In the same order, the values of `Fc1ccccc1-c1ccnc(N2CCCC2)c1-c1nc2ccncc2[nH]1` [Example 11, 2-(4-(2-fluorophenyl)-2-(pyrrolidin-1-yl)pyridin-3-yl)-3H-imidazo[4,5-c]pyridine Formic Acid Salt] are 1 to 10 µM and “++++ (++++ indicates a value greater than 7.5)”.
For the compound `CCCCNc1nnc(-c2c(-c3ccccc3F)ccnc2N2CC[C@H](F)C2)o1` [Example 12, (S)—N-butyl-5-(4-(2-fluorophenyl)-2-(3-fluoropyrrolidin-1-yl)pyridin-3-yl)-1,3,4-oxadiazol-2-amine], the EC50 was in the range of 10 to 50 µM and the “Empirical Emax” value is “++ (++ indicates a value from 2.0 up to 5.0 μM)”.
In the same order, the values of `CC(C)CCc1nnc(-c2c(-c3ccccc3O)ccnc2N2CC[C@H](F)C2)o1` [Example 13, (S)-2-(2-(3-fluoropyrrolidin-1-yl)-3-(5-isopentyl-1,3,4-oxadiazol-2-yl)pyridin-4-yl)phenol] are at least 50 µM and “+ (+ indicates a value less than 2.0 μM)”.
Turning to `F[C@H]1CCN(c2nccc(C3=CCCC3)c2-c2nc3ccccc3[nH]2)C1` [Example 14, (S)-2-(4-(cyclopent-1-en-1-yl)-2-(3-fluoropyrrolidin-1-yl)pyridin-3-yl)-1H-benzo[d]imidazole], the EC50 lay in the range of 1 to 10 µM and the “Empirical Emax” value was “++ (++ indicates a value from 2.0 up to 5.0 μM)”.
For the compound `Fc1cccnc1-c1ccnc(N2CCCC2)c1-c1nc2ccccc2[nH]1` [Example 15, 2-(3-fluoro-2′-(pyrrolidin-1-yl)-[2,4′-bipyridin]-3′-yl)-1H-benzo[d]imidazole], the EC50 was in the range of 10 to 50 µM and the “Empirical Emax” value is on record as “++++ (++++ indicates a value greater than 7.5)”.
Consider `c1ccc(-c2ccnc(N3CCCC3)c2-c2nc3ccccc3[nH]2)cc1` [Example 16, 2-(4-phenyl-2-(pyrrolidin-1-yl)pyridin-3-yl)-1H-benzo[d]imidazole], for which the EC50 lay in the range of 1 to 10 µM and the “Empirical Emax” value was “+++ (+++ indicates a value from 5.0 up to 7.5 μM)”.
For `F[C@H]1CCN(c2nccc(-c3ccccc3)c2-c2nc3ccccc3[nH]2)C1` [Example 17, (S)-2-(2-(3-fluoropyrrolidin-1-yl)-4-phenylpyridin-3-yl)-1H-benzo[d]imidazole] the same measures were 1 to 10 µM and “++++ (++++ indicates a value greater than 7.5)”.
For `Fc1ccccc1-c1ccnc(N2CC[C@H](F)C2)c1-c1nc2ccccc2[nH]1` [Example 18, (S)-2-(4-(2-fluorophenyl)-2-(3-fluoropyrrolidin-1-yl)pyridin-3-yl)-1H-benzo[d]imidazole] the same measures were 1 to 10 µM and “++++ (++++ indicates a value greater than 7.5)”.
For `F[C@H]1CCN(c2nccc(-c3ccccc3)c2-c2cc(-c3cccnc3)[nH]n2)C1` [Example 19, (S)-2-(3-fluoropyrrolidin-1-yl)-4-phenyl-3-(5-(pyridin-3-yl)-1H-pyrazol-3-yl)pyridine] the same measures were 10 to 50 µM and “++ (++ indicates a value from 2.0 up to 5.0 μM)”.
On to `CC(C)c1ccc(-c2cc(-c3c(-c4ccccc4)ccnc3N3CC[C@H](F)C3)n[nH]2)cc1` [Example 20, (S)-2-(3-fluoropyrrolidin-1-yl)-3-(5-(4-isopropylphenyl)-1H-pyrazol-3-yl)-4-phenylpyridine], for which the EC50 was 10 to 50 µM and the “Empirical Emax” value was “++ (++ indicates a value from 2.0 up to 5.0 μM)”.
In the same order, the values of `Fc1cc(F)cc(-c2ccnc(N3CCCC3)c2-c2nc3ccccc3[nH]2)c1` [Example 23, 2-(4-(3,5-difluorophenyl)-2-(pyrrolidin-1-yl)pyridin-3-yl)-1H-benzo[d]imidazole] are 1 to 10 µM and “++ (++ indicates a value from 2.0 up to 5.0 μM)”.
Take `F[C@H]1CCN(c2nccc(-c3ccccc3)c2C2=N[C@@H]3CCCC[C@H]3N2)C1` [Example 24, (3aR,7aR)-2-(2-((S)-3-fluoropyrrolidin-1-yl)-4-phenylpyridin-3-yl)-3a,4,5,6,7,7a-hexahydro-1H-benzo[d]imidazole]: the EC50 lay within 1 to 10 µM and the “Empirical Emax” value is “+ (+ indicates a value less than 2.0 μM)”.
In the same order, the values of `c1ccc(-c2ccnc(N3CCOCC3)c2C2=N[C@@H]3CCCC[C@H]3N2)cc1` [Example 25, 4-(3-((3aR,7aR)-3a,4,5,6,7,7a-hexahydro-1H-benzo[d]imidazol-2-yl)-4-phenylpyridin-2-yl)morpholine] are 1 to 10 µM and “+ (+ indicates a value less than 2.0 μM)”.
With `CC1CN=C(c2c(-c3ccccc3)ccnc2N2CC[C@H](F)C2)N1` (stereo partly drawn) [Example 26, 2-((S)-3-fluoropyrrolidin-1-yl)-3-(5-methyl-4,5-dihydro-1H-imidazol-2-yl)-4-phenylpyridine], the EC50 lay within 1 to 10 µM and the “Empirical Emax” value was “+ (+ indicates a value less than 2.0 μM)”.
For `Cc1[nH]c(-c2c(-c3ccccc3)ccnc2N2CC[C@H](F)C2)nc1Br` [Example 27, (S)-3-(4-bromo-5-methyl-1H-imidazol-2-yl)-2-(3-fluoropyrrolidin-1-yl)-4-phenylpyridine], the EC50 is 1 to 10 µM and the “Empirical Emax” value was “++ (++ indicates a value from 2.0 up to 5.0 μM)”.

Source of the values: US12054486B2, “Pyridine derivatives and their use as sodium channel activators” (Xenon Pharmaceuticals Inc., priority 2021, dated 2024).
